# Experimental data published in US12331095B2, “Inducible T cell receptors and uses thereof” (MEDIGENE IMMUNOTHERAPIES GMBH, priority 2018, dated 2025).
# Test system: CD8+ PBL
# Assay: Flow cytometry (CD3, BV6-5) for induction of iTCR-NY-ESO on the surface of CD8+ PBL
# Type: cell-based
# Details: any of the concentrations tried (data not shown)
# Procedure: FIG. 9: CD8^+ PBL transduced with iTCR-NY-ESO (MHC-I restricted TCR) or CD8^+ PBL expressing wt-NY-ESO were induced overnight with 1, 5, 10 or 20 μM Endoxifen or were left uninduced (no Endoxifen). 24 h after induction T2 cells loaded with relevant peptide SLLMWITQC (SEQ ID NO: 12) or irrelevant peptide VLDGLDVLL (SEQ ID NO: 11) were added to the cultures. IFN-γ secretion was detected by standard IFN-γ ELISA performed with the culture supernatants 24 h after stimulation with T2 targets. Flow cytometry was performed 48 h after induction and cells were assessed for BFP (transductants), CD3 and BV6-5. Exemplary plots shown are iTCR-NY-ESO transduced CD8^+ PBL without induction or with 20 μM Endoxifen. Plots were generated using the analysis tool FlowJo V10. Graph was plotted using graphPad Prism 7.
# PBL from a healthy donor was enriched for CD8^+ cells using a commercial cell isolation kit (CD8+untouched) and transduced with the lentiviral vector carrying the iTCR-NY-ESO cassette or with the lentiviral vector carrying wt-NY-ESO as positive control. […] CD8^+ cells carrying either iTCR-NY-ESO were induced overnight with 20 μM Endoxifen or left untreated. Cells were then stained for CD3 (CD3-PECy7, SK7, 557851, BD) and the specific V-beta family BV6-5 (antibody: TRBV6-5-PE, IMMU 222, IM2292, Beckman Coulter).
compound,measurement,value
"CCC(=C(c1ccc(O)cc1)c1ccc(OCCN(C)C)cc1)c1ccccc1 [4-Hydroxytamoxifen, 4-(1-[4-(Dimethylaminoethoxy)phenyl]-2-phenyl-1-butenyl)phenol]",induction of iTCR-NY-ESO in PBL,did not induce iTCR-NY-ESO in PBL in any of the concentrations tried
